Assay results reported in publication PMC6213216, “AbeTx1 Is a Novel Sea Anemone Toxin with a Dual Mechanism of Action on Shaker-Type K^+ Channels Activation” (Marine Drugs, 2018).
Positions of bridges follow the written chain, without caps; N, C: chain ends. Residues, ends and D or L forms follow the SMILES beside them.

Legend:
[1] = biological target: T1, rKV1.1 (Rattus norvegicus, UniProt P10499); test: Two-electrode voltage-clamp on Xenopus laevis oocytes expressing rKV1.1; format: cell-based; settings: concentration-response curve, percentage blocked current fitted with Hill equation; TEVC oocytes, 0 mV from −90 mV; mean ± SE, n ≥ 3; SEM; read-out: KV1.1 IC50
T1 construct: expressed in transfected cells; host or cells: Xenopus laevis oocytes injected with cRNA
Method: (§1) The pharmacological effect of AbeTx1 was analyzed by heterologous expression of 12 voltage-gated potassium channels isoforms (rKV1.1, Genbank NM173095; rKV1.2, Genbank NM012970; hKV1.3, Genbank L23499; rKV1.4,Genbank NM012971; rKV1.5, Genbank NM012972; rKV1.6, Genbank NM575671; Shaker IR from Drosophila melanogaster, Genbank CG12348; rKV2.1, Genbank NM013186; hKV3.1, Genbank NM004976; rKV4.2, Genbank NM031730; rKV4.3, Genbank NM031739 and hERG, Genbank NM000238), and three voltage-gated sodium channel subtypes (rNaV1.2, Genbank NM012647; rNaV1.4, Genbank M26643 and BgNaV1.1, from Blattella germanica) (r, rat; h, human) in oocytes from Xenopus laevis. The linearized plasmids were transcribed using a T7 or SP6 mMESSAGE-mMACHINE transcription kit (Life Technologies, Austin, TX, USA). Oocytes were injected with 20–50 nL of cRNA at a concentration of 1 ng·nL^−1 using a microinjector (Drummond Scientific, Broomall, PA, USA). The oocytes were stored for 1–3 days at 16 °C until sufficient expression of voltage-gated ion channels was achieved. Oocytes were maintained in an ND96 solution (in mM: 96 NaCl, 2 KCl, 1.8 CaCl2, 2 MgCl2 and 5 HEPES; pH 7.4), supplemented with 50 µg·mL^−1 gentamicin sulfate.
(§2) Two-electrode voltage-clamp recordings were performed at room temperature (18–22 °C) using a Geneclamp 500 amplifier (Molecular Devices, Sunnyvale, CA, USA) controlled by a pClamp data acquisition system (Axon Instruments, Union City, CA, USA). ND96 was used as bath solution. Whole-cell currents from oocytes were recorded 1–3 days after injection. Voltage and current electrodes were filled with KCl (3 M). The resistance of both electrodes was kept between 0.8–1.0 MΩ. The elicited currents were filtered at 0.5 or 2 kHz using a four-pole low-pass Bessel filter. Leak subtraction was performed using a -P/4 protocol. KV1.1-KV1.6 and Shaker IR currents were evoked by 500 ms depolarization to 0 mV, followed by a 500 ms pulse to −50 mV, from a holding potential of −90 mV. KV2.1, KV3.1, KV4.2, and KV4.3 currents were elicited by 500 ms pulses to + 20 mV from a holding potential of −90 mV. Current traces of hERG channels were elicited by applying a +40 mV pulse for 2.5 s, followed by a step to −120 mV for 2.5 s. Sodium current traces were evoked by 100 ms depolarization steps from a holding potential of −90 mV to 0 mV. Concentration-response curves were constructed by adding different AbeTx1 or analogs concentrations directly to the bath solution. The percentage of the KV blockade was plotted against the logarithm of the applied concentrations and fitted with the Hill Equation (1):y = 100/[1 + (IC50/[toxin]) × h](1) where y is the amplitude of the toxin-induced effect, IC50 is the toxin concentration at half-maximal efficacy, [toxin] is the toxin concentration, and h is the Hill coefficient. To investigate the effects on the voltage dependence of activation, current traces were evoked by 10 mV depolarization steps from a holding potential of −90 mV. Data were normalized to the maximal K^+ current amplitude, plotted against prepulse potential, and fitted using the Boltzmann Equation (2):IK/Imax = [1 + (exp(Vg − V)/k] − 1(2) where Imax represents maximal potassium current (IK), Vg is the voltage corresponding to half-maximal current, and k is the slope factor. Each experimental data represents mean ± standard error of at least three oocytes (n ≥ 3) from different frogs. Effect of the toxin on current-voltage experiments was statistically examined by comparing the control condition and the presence of toxin using the Student’s paired t-test. P-values < 0.05 are considered to be statistically significant. Data were analyzed using Clampfit 10.4 (Molecular Devices, Sunnyvale, CA, USA) and Origin v8.1 software (Origin Lab, Northampton, MA, USA), under the institutional license of the University of São Paulo.

[2] = biological target: T2, rKV1.6 (Rattus norvegicus, UniProt P17659); test: Two-electrode voltage-clamp on Xenopus laevis oocytes expressing rKV1.6; format: cell-based; settings: concentration-response curve, percentage blocked current fitted with Hill equation; TEVC oocytes, 0 mV from −90 mV; mean ± SE, n ≥ 3; SEM; read-out: KV1.6 IC50
T2 construct: expressed in transfected cells; host or cells: Xenopus laevis oocytes injected with cRNA
Method: as §1, §2

T2 sequence (P17659 whole entry): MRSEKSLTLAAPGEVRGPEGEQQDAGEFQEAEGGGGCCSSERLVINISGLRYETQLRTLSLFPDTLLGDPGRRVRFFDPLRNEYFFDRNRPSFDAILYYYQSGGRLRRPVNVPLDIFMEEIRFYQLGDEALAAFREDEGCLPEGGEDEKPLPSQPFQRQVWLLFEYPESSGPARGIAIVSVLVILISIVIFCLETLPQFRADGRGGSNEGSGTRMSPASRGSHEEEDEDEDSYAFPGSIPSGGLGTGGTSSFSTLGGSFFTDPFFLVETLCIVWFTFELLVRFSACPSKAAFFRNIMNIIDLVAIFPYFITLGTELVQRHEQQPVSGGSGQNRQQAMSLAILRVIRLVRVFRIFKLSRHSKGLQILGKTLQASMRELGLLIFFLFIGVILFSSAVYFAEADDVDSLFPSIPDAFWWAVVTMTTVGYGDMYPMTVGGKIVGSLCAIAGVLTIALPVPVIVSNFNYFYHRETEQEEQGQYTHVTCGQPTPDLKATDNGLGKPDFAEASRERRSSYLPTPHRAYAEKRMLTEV
T1 sequence (P10499 whole entry): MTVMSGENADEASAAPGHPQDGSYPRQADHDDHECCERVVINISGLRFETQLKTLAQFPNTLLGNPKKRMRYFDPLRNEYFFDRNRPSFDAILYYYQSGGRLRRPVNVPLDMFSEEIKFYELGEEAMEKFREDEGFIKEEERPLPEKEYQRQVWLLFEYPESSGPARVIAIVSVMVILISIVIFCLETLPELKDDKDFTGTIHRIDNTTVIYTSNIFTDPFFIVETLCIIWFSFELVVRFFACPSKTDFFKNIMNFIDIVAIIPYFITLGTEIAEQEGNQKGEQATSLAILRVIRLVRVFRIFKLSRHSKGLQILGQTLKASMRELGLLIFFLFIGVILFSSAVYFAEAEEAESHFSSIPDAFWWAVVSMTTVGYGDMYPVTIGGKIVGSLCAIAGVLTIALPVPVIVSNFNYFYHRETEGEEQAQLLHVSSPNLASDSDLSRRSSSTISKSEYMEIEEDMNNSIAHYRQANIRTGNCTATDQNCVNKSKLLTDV

Structure (SMILES)	IC50 [1] [µM]	IC50 [2] [µM]
C[C@@H]1NC(=O)[C@@H]2CCCN2C(=O)[C@H](CCCNC(=N)N)NC(=O)[C@@H]2CSSC[C@H](NC(=O)[C@H]([C@@H](C)O)NC(=O)[C@H](CCCCN)NC(=O)[C@@H](NC(=O)[C@@H](N)CCCNC(=N)N)CSSC[C@@H](C(=O)NCC(=O)O)NC(=O)[C@H](CC(N)=O)NC(=O)[C@@H]3CCCN3C1=O)C(=O)N[C@@H](CO)C(=O)N[C@@H](CCCCN)C(=O)NCC(=O)N[C@@H](CCCNC(=N)N)C(=O)N2 [Lys13Ala] (H-RCKTCSKGRCRPAPNCG-OH; disulfide 2-16, 5-10)	4.55	1.08
C[C@H](N)C(=O)N[C@H]1CSSC[C@@H](C(=O)NCC(=O)O)NC(=O)[C@H](CC(N)=O)NC(=O)[C@@H]2CCCN2C(=O)[C@H](CCCCN)NC(=O)[C@@H]2CCCN2C(=O)[C@H](CCCNC(=N)N)NC(=O)[C@@H]2CSSC[C@H](NC(=O)[C@H]([C@@H](C)O)NC(=O)[C@H](CCCCN)NC1=O)C(=O)N[C@@H](CO)C(=O)N[C@@H](CCCCN)C(=O)NCC(=O)N[C@@H](CCCNC(=N)N)C(=O)N2 [Arg1Ala] (H-ACKTCSKGRCRPKPNCG-OH; disulfide 2-16, 5-10)	1.97	3.53
C[C@@H]1NC(=O)[C@H](CO)NC(=O)[C@@H]2CSSC[C@H](NC(=O)[C@H](CCCNC(=N)N)NC(=O)CNC1=O)C(=O)N[C@@H](CCCNC(=N)N)C(=O)N1CCC[C@H]1C(=O)N[C@@H](CCCCN)C(=O)N1CCC[C@H]1C(=O)N[C@@H](CC(N)=O)C(=O)N[C@H](C(=O)NCC(=O)O)CSSC[C@H](NC(=O)[C@@H](N)CCCNC(=N)N)C(=O)N[C@@H](CCCCN)C(=O)N[C@@H]([C@@H](C)O)C(=O)N2 [Lys7Ala] (H-RCKTCSAGRCRPKPNCG-OH; disulfide 2-16, 5-10)	17.8	0.852 ± 0.09
C[C@@H]1NC(=O)[C@@H]2CSSC[C@H](NC(=O)[C@H]([C@@H](C)O)NC(=O)[C@H](CCCCN)NC(=O)[C@@H](NC(=O)[C@@H](N)CCCNC(=N)N)CSSC[C@@H](C(=O)NCC(=O)O)NC(=O)[C@H](CC(N)=O)NC(=O)[C@@H]3CCCN3C(=O)[C@H](CCCCN)NC(=O)[C@@H]3CCCN3C1=O)C(=O)N[C@@H](CO)C(=O)N[C@@H](CCCCN)C(=O)NCC(=O)N[C@@H](CCCNC(=N)N)C(=O)N2 [Arg11Ala] (H-RCKTCSKGRCAPKPNCG-OH; disulfide 2-16, 5-10)	21.5	0.811 ± 0.179
